Numbering of substitutions follows the chain as printed. Read-outs that look alike come from different tables or passages of the source.

We go through six molecules from PMC5413348, “Structure of Fam20A reveals a pseudokinase featuring a unique disulfide pattern and inverted ATP-binding” (eLife, 2017).

Data set [1] concerns the target T1, Fam20A (Homo sapiens, UniProt Q96MK3).
T1 construct: residues 69-529; secreted from Hi5 insect cells; N-terminal 6xHis-SUMO tag removed by TEV protease; dimer in crystal, concentration-dependent dimer/oligomer in solution
T1 sequence (Q96MK3 69-529): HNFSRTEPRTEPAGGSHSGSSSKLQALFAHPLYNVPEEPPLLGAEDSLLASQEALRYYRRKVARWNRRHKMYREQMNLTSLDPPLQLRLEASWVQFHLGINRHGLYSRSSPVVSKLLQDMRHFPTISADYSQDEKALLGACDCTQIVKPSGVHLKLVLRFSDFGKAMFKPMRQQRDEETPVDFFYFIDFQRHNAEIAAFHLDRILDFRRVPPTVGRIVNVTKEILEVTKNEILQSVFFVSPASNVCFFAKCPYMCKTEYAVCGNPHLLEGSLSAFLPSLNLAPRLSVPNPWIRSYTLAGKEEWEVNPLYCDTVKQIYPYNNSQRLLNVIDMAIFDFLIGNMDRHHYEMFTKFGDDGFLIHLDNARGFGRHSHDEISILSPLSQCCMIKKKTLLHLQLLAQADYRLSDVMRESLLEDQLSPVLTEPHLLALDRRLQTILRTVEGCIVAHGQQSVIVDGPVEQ
Kind of data set: thermal stability shift assay (SYPRO Orange), dTm vs concentration fit. Format: binding. The settings on record: 20 mM HEPES pH 7.5, 100 mM NaCl.

For data set [2], the target named is T2, Fam20A (Homo sapiens, UniProt Q96MK3, K223A).
T2 construct: residues 69-529; secreted from Hi5 insect cells; N-terminal 6xHis-SUMO tag removed by TEV protease; dimer in crystal, concentration-dependent dimer/oligomer in solution
T2 sequence (Q96MK3 69-529 K223A): T1 sequence (Q96MK3 69-529) with K155A
Briefly: thermal stability shift assay (SYPRO Orange). Format: binding. The settings on record: 100 μM ATP; 20 mM HEPES pH 7.5, 100 mM NaCl.

The target in data set [3] is T3, Fam20A (Homo sapiens, UniProt Q96MK3, D430A).
T3 construct: residues 69-529; secreted from Hi5 insect cells; N-terminal 6xHis-SUMO tag removed by TEV protease; dimer in crystal, concentration-dependent dimer/oligomer in solution
T3 sequence (Q96MK3 69-529 D430A): T1 sequence (Q96MK3 69-529) with D362A
Briefly: thermal stability shift assay (SYPRO Orange). It counts as binding. The conditions noted are these: 100 μM ATP; 20 mM HEPES pH 7.5, 100 mM NaCl.

Data set [4] addresses T1, Fam20A. Briefly: thermal stability shift assay (SYPRO Orange). Format: binding. The conditions noted are these: 10 μM nucleotide; no metal ions; 20 mM HEPES pH 7.5, 100 mM NaCl.
Data set [5] concerns the molecule itself. Briefly: SEC; 1 mg or 100 µg purified Fam20A (both in 500 µl) on Superdex 200 increase 10/300 GL, 20 mM HEPES, pH 7.5, 100 mM NaCl. (In gel filtration, larger molecules generally elute earlier.)

As to `Nc1ncnc2c1ncn2[C@@H]1O[C@H](COP(=O)(O)OP(=O)(O)O)[C@@H](O)[C@H]1O` [ADP], the Kd entry on Fam20A [1] (no cations) is on record as “Fam20A prefers binding ATP over ADP (Figure 2D)”.
As for `Nc1ncnc2c1ncn2[C@@H]1O[C@H](COP(=O)(O)OP(=O)(O)OP(=O)(O)O)[C@@H](O)[C@H]1O` [ATP], the Tm result at Fam20A [2] and on Fam20A [3] was “with Ala has little effect on the ability of Fam20A to bind ATP” each time. Also, at Fam20A [1] (no divalent cations, inverted orientation in crystal, read-out: Kd^app), the Kd is 3 µM.
As to `Nc1ccn([C@@H]2O[C@H](COP(=O)(O)OP(=O)(O)OP(=O)(O)O)[C@@H](O)[C@H]2O)c(=O)n1` [CTP], the ΔTm result on Fam20A [4] is “Fam20A also binds other nucleoside triphosphates including GTP, CTP, and UTP”.
Same read-out and setting: the same measure for `Nc1nc2c(ncn2[C@@H]2O[C@H](COP(=O)(O)OP(=O)(O)OP(=O)(O)O)[C@@H](O)[C@H]2O)c(=O)[nH]1` [GTP]: “Fam20A also binds other nucleoside triphosphates including GTP, CTP, and UTP”; for `O=c1ccn([C@@H]2O[C@H](COP(=O)(O)OP(=O)(O)OP(=O)(O)O)[C@@H](O)[C@H]2O)c(=O)[nH]1` [UTP]: “Fam20A also binds other nucleoside triphosphates including GTP, CTP, and UTP”.

B1: Human Fam20A residues 69–529 (domain or fragment, UniProt Q96MK3 69-529, looked up)
chain: T1 sequence (Q96MK3 69-529)
notes: Fam20A, human, residues 69-529, secreted from a modified pI-secSUMOstar vector; the 6xHis-SUMO tag was removed by TEV protease; The only purified Fam20A construct that the methods describe; also called untagged Fam20A; purified Fam20A; source: Hi5 insect cells (baculovirus), conditioned medium, purified (Ni-NTA, Resource Q, Superdex 200); not shown: 6xHis, N-terminal, cleaved; SUMO, N-terminal, …
Consider B1, for which the binding result in data set [5] is recorded as “binds”.
